Source: patent US6681132B1, “Sodium magnetic reasonance imaging used in diagnosing tumors and assessing response to treatment” (The Trustees of Columbia University in the City of New York, priority 1999, dated 2004)

Tests used:
PC3 and DU145 tumors = assay: IR sodium MRI, PC3 and DU145 tumors taken as a whole; assay type: in vivo, nude mice; details: PC3 and DU145 tumors plotted together
Experimental: (A) Chemotherapy and inversion recovery MR imaging—Following acquisition of control images, antineoplastics were administered. All IR images and SQ images were normalized to the brightest phantom within each slice (i.e., 40% Ficoll for IR and 30% Ficoll for SQ respectively). All tumors were analyzed by examining changes in intensity at the brightest—usually central area—of the tumor image. It was clearly identifiable both from manual examination with line profiles or from the pixel density histogram derived from a region of interest analysis. […] Results from PC3 tumors (solid lines, filled circles) and DU145 tumors (dashed lines, open circles) are plotted together. […]
In vivo detection of antineoplastic effects using weighted sodium MR images—Examination of the effect of chemotherapy on the IR sodium image in a series of PC3 and DU145 tumors was studied. […] Elevation is significant for each drug taken separately for the more numerous PC3 tumor experiments (taxotere, 32% increase at p<0.001, n=5; VP-16, 38% increase at p<0.0005, n=7); and is also significant for all PC3 experiments measured at 48 hrs (28%, p<0.05, n=11). […]
The effect of chemotherapy on the IR sodium image intensity in PC3 and DU145 tumors was consistent with the culture results. […] These values were calculated from human doses using standard equations which convert weight to surface area for small mammals. […]

PC3 cells = assay: Annexin V/FITC labeling of live (propidium iodide negative) cells, flow cytometry; assay type: cell-based, human
Experimental: Enhanced FITC fluorescence (annexin positive response; panel B) indicated reorientation of phosphatidylserine within the cell membrane. PI was added to detect dead cells, which was both PI and annexin positive, the latter response due to internal binding of an antibody to phosphatidylserine sites accessed through membrane rupture. Control cells were mostly PI and FITC negative. The percentage of live PC3 cells that were annexin positive (vertical axis) is plotted versus time (horizontal axis) for taxotere (10 nM; filled circles) and VP-16 (10 ug/ml; filled triangles). A one dimensional annexin histogram (FITC intensity) for live cells is shown for control (bottom insert) and after 24 hrs VP-16 (top insert). Flow cytometry was performed on the Becton/Dickenson FACStar II (APO-BrdU) or exCaliber flow system (Annexing) at the Columbia University Cancer Center and analyzed using CellQuest Software.
a) Early events—reorientation of phosphatidylserine: Live cells exposed to an Annexin V/FITC conjugated antibody. Enhanced fluorescence indicates reorientation of phosphatidylserine within the cell membrane (61, 93). Propidium iodide (PI) concurrently indicates cell viability. Since trypsin cleaves the annexin binding site, for dissociating cells from explanted tumor, trypsin containing collagenase preparations were not used. Cells are dissociated by mincing the tumor with surgical scissors and passing tissue repeatedly through needles while increasing the gauge. Cells are removed from tissue culture plates using 1 mM EDTA in Ca/Mg free PBS.
Flow cytometry was used to examine a second, presumably an earlier event in the apoptotic cascade, reorientation of phosphatidylserine within the cell membrane (FIG. 3.B.). Live cells were exposed to an annexin\V/FITC conjugated antibody. For annexin labeling, cells were cultured for 1 day, treated, then lifted off the culture plate using PBS plus EDTA and exposed to Annexin V/FITC conjugated antibody. Trypsin—which cleaves the antibody binding site—was avoided.

L cells = details: cited from earlier work
PC3 tumors = assay: Inversion recovery (IR) weighted sodium MRI of PC3 tumors after chemotherapy; assay type: in vivo, nude mice; details: for increase in maximum IR sodium image intensity: PC3 tumors, 24 hrs vs predrug, 25 msec inversion time, normalized to brighter phantom, taxotere 1.5 mg, VP-16 0.2-0.4 mg, femoral vein
Experimental: (A) Chemotherapy and inversion recovery MR imaging—Following acquisition of control images, antineoplastics were administered. All IR images and SQ images were normalized to the brightest phantom within each slice (i.e., 40% Ficoll for IR and 30% Ficoll for SQ respectively). All tumors were analyzed by examining changes in intensity at the brightest—usually central area—of the tumor image. It was clearly identifiable both from manual examination with line profiles or from the pixel density histogram derived from a region of interest analysis. […] Results from PC3 tumors (solid lines, filled circles) and DU145 tumors (dashed lines, open circles) are plotted together. In two experiments with control saline injections (not shown in graphs), there were small decreases of 5.5% (NS) at 24 hours and 3.5% (NS) at 48 hours.
In vivo detection of antineoplastic effects using weighted sodium MR images—Examination of the effect of chemotherapy on the IR sodium image in a series of PC3 and DU145 tumors was studied. Control and post-therapy images were acquired in sixteen mice, and tumors in two additional mice had images reacquired at both 24 and 48 hrs following control saline injection. […] Results are plotted as change in maximum image intensity for each drug separately (top panel, FIG. 4, taxotere; bottom panel, FIG. 4, VP-16 etoposide). Elevation is significant for each drug taken separately for the more numerous PC3 tumor experiments (taxotere, 32% increase at p<0.001, n=5; VP-16, 38% increase at p<0.0005, n=7); and is also significant for all PC3 experiments measured at 48 hrs (28%, p<0.05, n=11).
All imaging experiments were performed on a high field (4.23 Tesla) whole body MRI system. A small quadrature birdcage radiofrequency coil (50 mm ID, Morris Inc.) and a high strength gradient insert coil (30 mT/m, Bruker model G-33) were employed. Acquisition parameters were TR=100 msec, TE=5.6 msec, FOV=40 mm, slice thickness=2.5 mm, flip angle=90° , inversion time=25 msec, acquisition matrix was 64×64×8. The two phantoms on all animal images shown were identical (P1-30% Ficoll in 200 mM NaCl; P2-40% Ficoll in 200 mM NaCl). All animal images were normalized to the brighter phantom (e.g. P1 on the SQ, P2 on the IR). Animals were positioned in a specially designed animal holder, allowing for reproducible tumor placement.
Two adjacent slices from a 3 dimensional gradient echo image set of a PC3 tumor are shown before (FIGS. 5, A&B) and 48 hrs after (FIGS. 5, C&D) injection of 1.5 mg taxotere to the nude mouse. […] The second example illustrates the contribution of this technique at its limit of resolution.
Inversion recovery images (25 msec inversion time) were acquired for 16 nude mouse tumors following chemotherapy. […]

[1] = 24 hrs, VP-16 10 μg/ml, taxotere 10 nM

In the case of `COc1cc([C@@H]2c3cc4c(cc3[C@@H](O[C@@H]3O[C@@H]5CO[C@@H](C)O[C@H]5[C@H](O)[C@H]3O)[C@H]3COC(=O)[C@H]23)OCO4)cc(OC)c1O` [VP-16, etoposide], the “IR image intensity at 24 hrs versus control (graphs)” value (PC3 and DU145 tumors) is reported as “increased image intensity”, the “fraction of live cells (propidium iodide negative) in the annexin V positive peak” value (PC3 cells; 10 μg/ml, maximum response (24 hrs)) is reported as “Up to ⅔” and the “annexin V response” value (PC3 cells; 17 hrs, 10 μg/ml) is reported as “apparent”. For the same compound, the “annexin V response” value (PC3 cells; [1]) was “pronounced”, the “standard dose relative to Kd of annexin V dose response curve” value (PC3 cells; Kd measured at 24 hrs, standard dose 10 μg/ml) was “approximately 3 ×Kd” and the “effect on total cellular monovalent cations” value (L cells; K+ loss exceeds Na+ gain) was “net reduction”. The “effect on [Cai]” value (L cells; L cells) was “elevate”, the “effect on [Nai]” value (L cells; L cells) was “elevate” and the “effect on pHi” value (L cells; L cells) was “lowers”. The “increase in maximum IR sodium image intensity” value (PC3 tumors) was 38% and the “detectability of tumor on IR image” value (PC3 tumors; elongated PC3 tumor, 24 hr after injection of 0.3 mg) was “readily apparent following chemotherapy”.
With `CC(=O)O[C@@]12CO[C@@H]1C[C@H](O)[C@@]1(C)C(=O)[C@H](O)C3=C(C)[C@@H](OC(=O)[C@H](O)[C@@H](NC(=O)OC(C)(C)C)c4ccccc4)C[C@@](O)([C@@H](OC(=O)c4ccccc4)[C@H]21)C3(C)C` [taxotere] the “IR image intensity at 24 hrs versus control (graphs)” value (PC3 and DU145 tumors) was “increased image intensity”, the “time by which markers for apoptosis were detectable” value (PC3 cells; 10 nMol/L in culture) was at most 24 h and the “time by which markers for apoptosis were pronounced” value (PC3 cells; 10 nMol/L in culture) was at most 48 h. For the same compound, the “annexin V response” value (PC3 cells; [1]) was “much less pronounced”, the “standard dose relative to Kd of annexin V dose response curve” value (PC3 cells; Kd measured at 48 hrs, standard dose 10 nM) was “approximately 3 ×Kd” and the “annexin V response” value (PC3 cells; higher drug concentrations (10.0 μM) or later times (e.g. 48 hrs)) was “substantially greater”. For the same compound, the “spatial change of tumor on inversion recovery image” value (PC3 tumors; PC3 tumor, 48 hrs after injection of 1.5 mg) was “clear spatial broadening of the tumor” and the “increase in maximum IR sodium image intensity” value (PC3 tumors) was 32%.
